From paper PMC6753678, “Fueling Open Innovation for Malaria Transmission-Blocking Drugs: Hundreds of Molecules Targeting Early Parasite Mosquito Stages” (Frontiers in Microbiology, 2019)
Read-outs that look alike come from different tables or passages of the source.

How the values were obtained:
HepG2 cells [1] = conditions: HepG2; ref Miguel-Blanco et al 2017; cited from earlier work
[2] = system: P. falciparum female gametocytes; set-up: method as in Miguel-Blanco et al 2017; conditions: ref Miguel-Blanco et al 2017; read-out: Pf FGAA IC50; cited from earlier work
HepG2 cells [3] = test: HepG2 cytotoxicity assay; conditions: for IC50: read-out: HepG2 cytotoxicity assay IC50, dose response confirmation
Summary of the method: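 HepG2 cells, 2,500 per well in MEM with 10% FBS and 1% NEAA, exposed to compounds for 48 h at 37°C, 5% CO2. Viability read by fluorescence; percent inhibition relative to 50 μM doxorubicin and DMSO controls.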

[4] = system: P. berghei ookinete development; conditions: for % inhibition, Replicate A / % inhibition, Replicate B: primary screen at 1 μM
[5] = system: 3D7-strain P. falciparum asexual parasites; test: P. falciparum asexual growth inhibition assay (Pf GIA); assay type: cell-based, Plasmodium falciparum; conditions: dose response confirmation; read-out: Pf asexual growth inhibition assays IC50
Summary of the method: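 0.25% parasitemia, 2% Hct, RPMI/HEPES/hypoxanthine/5% Albumax; compound dose response, 72 h, 37°C, 5% CO2, 5% O2, 90% N2. Freeze-thaw, then LDH assay, A650. % inhibition vs chloroquine (50 μM)/DMSO, mean of 3 independent runs.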

[6] = system: P. falciparum female gametocytes; test: P. falciparum female gametogenesis assay (Pf FGAA); conditions: 1: YES; 0: NO; >10-fold selectivity over cytotox
[7] = HepG2 values of the three screens unified
[8] = read-out: Pb ODA IC50, this manuscript
[9] = read-out: Pb Ookinete development assay IC50, dose response confirmation
[10] = unified HepG2 cytotoxicity across the three screens
[11] = unified HepG2 value across the three screens

Row | SMILES | IC50 [2] | IC50 (HepG2 cells [3]) | Is compound selective in assay? Pb ODA active? ([4]; 1: YES, 0: NO) | % inhibition, Replicate A [4] | % inhibition, Replicate B [4] | IC50 [4, 8] | IC50 [4, 9] | IC50 [5] | Unified cytotox (HepG2 cells [3]; [10]) | Is compound selective in assay? Pf FGAA active? [6] | further results
1 | Cc1[nH]c(C)c(-c2ccc(CCc3ccc(F)cc3F)cc2)c(=O)c1Cl [TCMDC-135462] | 13.3 µM | 100 µM | 1 (1: YES) | 91.00% | 103.90% | 0.01 µM | 0.011 µM | 0.00253 µM |  |  | HepG2 cytoxicity (Pf FGAA screen) (HepG2 cells [1]): >100 µM; Unified cytotox (HepG2 cells [3]; [7]): 100.00 µM
2 | Clc1ccc(Nc2nc(NCc3ccccc3)nc(N/N=C/c3ccccn3)n2)cc1 [TCMDC-138557] | 0.26 µM |  |  |  |  |  |  |  | 13.96 µM | 1 (1: YES) | 
3 | Cl.O=C(NCCCCN1CCC(c2ccc3c(c2O)CCCC3)CC1)c1ccc(NC(=O)c2ccc(Cl)cc2)cc1 [TCMDC-138645] | 1.49 µM |  |  |  |  |  |  |  | 3.80 µM | 0 (0: NO) | 
4 | CC(C)(C)c1ccc(CNCCOc2ccc(Nc3nnc(-c4ccc(-c5ncc[nH]5)cc4)o3)c3ccccc23)cc1.O=C(O)C(F)(F)F [TCMDC-138667] | 0.62 µM |  |  |  |  |  |  |  | 5.96 µM | 0 (0: NO) | 
5 | CCc1ccc(C2CCN(CCCCNC(=O)c3ccc(NC(=O)c4ccc(Cl)cc4)cc3)CC2)c(OCCO)c1 [TCMDC-138703] | 2.25 µM |  |  |  |  |  |  |  | 5.37 µM | 0 (0: NO) | 
6 | COc1cc2nc(N3CCC(CNC(=O)c4ccc(-c5ccc(C(F)(F)F)cc5)cc4)CC3)nc(N)c2cc1OC [TCMDC-138716] | 0.85 µM |  |  |  |  |  |  |  | 4.92 µM | 0 (0: NO) | 
7 | COc1cc2nc(N3CCC(CNC(=O)c4ccc(-c5ccc(Cl)cc5)cc4)CC3)nc(N)c2cc1OC [TCMDC-138718] | 0.89 µM |  |  |  |  |  |  |  | 4.22 µM | 0 (0: NO) | 
8 | COC(=O)c1ccc(-c2ccc(C(=O)NCC3CCN(c4nc(N)c5cc(OC)c(OC)cc5n4)CC3)cc2)cc1 [TCMDC-138721] | 0.91 µM |  |  |  |  |  |  |  | 6.10 µM | 0 (0: NO) | 
9 | O=C(NCCCCN1CCC(c2ccc3c(c2OCCN2CCCC2)CCCC3)CC1)c1ccc(-c2ccc(C(F)(F)F)cc2)cc1 [TCMDC-138768] | 1.98 µM |  |  |  |  |  |  |  | 5.39 µM | 0 (0: NO) | 
10 | O=C(Nc1ccc(-c2ccccc2)c(OCCN2CCNCC2)c1)c1ccc(-c2ccc(Cl)cc2)cc1 [TCMDC-138818] | 1.38 µM |  |  |  |  |  |  |  | 4.95 µM | 0 (0: NO) | 
11 | O=C(NC1CCN(CCN2CCC(c3c[nH]c4ccccc34)CC2)CC1)c1ccc(-c2ccc(C(F)(F)F)cc2)cc1 [TCMDC-138845] | 1.8 µM |  |  |  |  |  |  |  | 4.68 µM | 0 (0: NO) | 
12 | CC(C)Cn1cc(C2CCN(CCN3CCC(CNC(=O)c4ccc(-c5ccc(C#N)cc5)cc4)CC3)CC2)c2ccccc21 [TCMDC-138849] | 1.03 µM |  |  |  |  |  |  |  | 4.79 µM | 0 (0: NO) | 
13 | CC(C)Cn1cc(C2CCN(CCN3CCC(CNC(=O)c4ccc(-c5ccc(C(F)(F)F)cc5)cc4)CC3)CC2)c2ccccc21 [TCMDC-138852] | 0.88 µM |  |  |  |  |  |  |  | 4.80 µM | 0 (0: NO) | 
14 | O=C(NCC1CCN(CCN2CCC(c3cn(CCO)c4ccccc34)CC2)CC1)c1ccc(-c2ccc(C(F)(F)F)cc2)cc1 [TCMDC-138856] | 1.47 µM |  |  |  |  |  |  |  | 2.69 µM | 0 (0: NO) | 
15 | O=C(O)C(F)(F)F.O=S(=O)(c1ccccc1)n1ccc2cc(Nc3ncnc4cc(C#C[C@H]5CCCN5)sc34)ccc21 [TCMDC-138913] | 1.17 µM |  |  |  |  |  |  |  | 5.50 µM | 0 (0: NO) | 
16 | COc1cc2nc(-c3ccc(Br)cc3)cc(N)c2cc1OC [TCMDC-138933] | 0.76 µM |  |  |  |  |  |  |  | 4.95 µM | 0 (0: NO) | 
17 | CCN1CCC2(c3cccc(OC)c3)Cc3nc4ccccc4c(-c4ccccc4)c3CC2C1 (stereo not drawn) [TCMDC-138968] | 1.43 µM |  |  |  |  |  |  |  | 33.25 µM | 1 (1: YES) | 
18 | COc1ccc(NC(=O)c2ccc(OCCCCCCCOc3ccc(C(=O)Nc4ccc(OC)c(N5CCN(C)CC5)c4)cc3)cc2)cc1N1CCN(C)CC1.O=C(O)C(=O)O [TCMDC-139007] | 1.41 µM |  |  |  |  |  |  |  | 4.43 µM | 0 (0: NO) | 
19 | CC(C)(CN)c1nc(-c2ccc(Cl)c(O)c2)c(-c2ccncc2)[nH]1.Cl [TCMDC-140369] | 0.94 µM | 1.66 µM |  | 54.47% | 53.78% | 0.51 µM | 0.514 µM | 0.194 µM |  |  | HepG2 cytoxicity (Pf FGAA screen) (HepG2 cells [1]): 2.16 µM; HepG2 cytoxicity (Pb ODA, this manuscript) (HepG2 cells [3]): 1.66 µM; Unified cytotox (HepG2 cells [3]; [7]): 1.91 µM
20 | CCN(CC)CCCNc1nccc(N(C)c2ccc(NC(=O)Nc3cc(C(F)(F)F)ccc3F)cc2)n1.O=C(O)C(F)(F)F [TCMDC-141634] |  | 2.75 µM | 0 (0: NO) | 55.58% | 13.78% | 9.02 µM | 9.02 µM | 0.811 µM |  |  | Unified cytotox (HepG2 cells [3]; [11]): 2.75 µM
21 | COc1ccc2ncc(Cl)c(CCN3CCC(NCc4ccc5c(n4)NC(=O)CS5)CC3)c2c1.Cl [TCMDC-141807] |  | 15.5 µM | 1 (1: YES) | 68.31% | 67.95% | 1.34 µM | 1.34 µM | 0.379 µM |  |  | HepG2 cytoxicity (Pb ODA, this manuscript) (HepG2 cells [3]): 15.49 µM; Unified cytotox (HepG2 cells [3]; [7]): 15.49 µM
22 | COc1ccc2ncc(Cl)c(CCN3CCC(NCc4ccc5c(n4)NC(=O)CO5)CC3)c2c1.Cl [TCMDC-141808] |  | 1.29 µM |  | 43.21% | 70.93% |  | 1.22 µM | 0.014 µM |  |  | Pb ODA (this manuscript) HepG2 cytoxicity (HepG2 cells [3]; HepG2 cytotoxicity listed with the Pb ODA data set (this manuscript)): 1.29 µM; Is compound selective in assay? Pb ODA active? [4]: 0 (key: 1: YES; 0: NO)
23 | COc1ccc2nccc(N3CCC(CCNCc4ccc5c(n4)NC(=O)CS5)CC3)c2n1.Cl [TCMDC-141944] |  | 14.8 µM | 0 (0: NO) | 58.34% | 37.24% | 8.88 µM | 8.88 µM | 0.16 µM |  |  | HepG2 cytoxicity (Pb ODA, this manuscript) (HepG2 cells [3]): 14.79 µM; Unified cytotox (HepG2 cells [3]; [7]): 14.79 µM
24 | COc1c(F)ccc2ncc(Cl)c(CCN3CCC(NCc4ccc5c(n4)NC(=O)CS5)CC3)c12.Cl [TCMDC-141955] |  | 24 µM | 1 (1: YES) | 54.74% | 63.10% | 1.9 µM | 1.9 µM | 1.19 µM |  |  | HepG2 cytoxicity (Pb ODA, this manuscript) (HepG2 cells [3]): 23.99 µM; Unified cytotox (HepG2 cells [3]; [7]): 23.99 µM
25 | Cl.O=C1CSc2ccc(CNC3CCN(CCc4c(Cl)cnc5ccc(Cl)cc45)CC3)nc2N1 [TCMDC-141959] |  | 17.8 µM | 0 (0: NO) | 64.42% | 30.41% | 4.22 µM | 4.22 µM | 0.32 µM |  |  | HepG2 cytoxicity (Pb ODA, this manuscript) (HepG2 cells [3]): 17.78 µM; Unified cytotox (HepG2 cells [3]; [7]): 17.78 µM
26 | Cl.O=C1CSc2ccc(CNC3CCN(CCc4c(Cl)cnc5ccc(F)cc45)CC3)nc2N1 [TCMDC-141960] |  | 38.9 µM | 1 (1: YES) | 68.86% | 55.86% | 3.04 µM | 3.04 µM | 0.207 µM |  |  | HepG2 cytoxicity (Pb ODA, this manuscript) (HepG2 cells [3]): 38.90 µM; Unified cytotox (HepG2 cells [3]; [7]): 38.90 µM
27 | Nc1nc(N)c2c(ccc3c2ccn3Cc2ccccc2)n1 [TCMDC-141977] |  | 0.15 µM | 0 (0: NO) | 47.17% | 65.82% | 0.29 µM | 0.286 µM | 0.001 µM |  |  | HepG2 cytoxicity (Pb ODA, this manuscript) (HepG2 cells [3]): 0.15 µM; Unified cytotox (HepG2 cells [3]; [7]): 0.15 µM
28 | CCOc1ccc2[nH]c(C)cc(=NN=Cc3cccnc3)c2c1 [TCMDC-142047] |  | 15.1 µM | 0 (0: NO) | 59.45% | 48.70% | 4.52 µM | 4.52 µM | 0.139 µM |  |  | Unified cytotox (HepG2 cells [3]; [11]): 15.14 µM
29 | CC1=CC(=O)[C@@H](O)[C@]2(C)[C@H]3[C@@]4(O)OC[C@@]35[C@@H](C[C@@H]12)OC(=O)C[C@H]5[C@@H](C)[C@H]4O [TCMDC-142261] |  | 26.3 µM | 1 (1: YES) | 102.04% | 101.98% | 0.0549 µM | 0.055 µM | 0.109 µM |  |  | Unified cytotox (HepG2 cells [3]; [11]): 26.30 µM
